Data on 8 compounds can be found in PubChem BioAssay (NCI).

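All cell lines were grown in 96-well plates and treated with compound for 48 hours. The concentration for 50% growth inhibition is given as GI50. At the TGI there is no net growth.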

Common to all, as to experiment: NCI-60 cell line screen, 48 h
Assay [1] has as its system A549 NSCLC.
For assay [2], the system named is HCT-116 colon.
For assay [3], the system named is HL-60(TB) leukemia.
Assay [4] has as its system MALME-3M melanoma.
Assay [5] deals with NCI-H23 lung.
In assay [6] the test system is NCI-H522 lung.
Assay [7] relates to NCI/ADR-RES ovarian.
Assay [8] has as its system SK-MEL-28 melanoma.
The test system of assay [9] is SR leukemia.
For assay [10], the system named is UO-31 renal.

Turning to `CC(C)[C@@H]1C=C2CC[C@H]3[C@](C)(CN)CCC[C@]3(C)[C@H]2CC1`, the GI50 is 3.07 µM in [1]; 1.77 µM in assay [2]; 1.38 µM in assay [3]; 3.9 µM in assay [4]; 1.94 µM in assay [5]; 1.91 µM in assay [6]. Moreover, the GI50 in assay [7] is 2.62 µM; in [8], 16.9 µM; in assay [9], 2.78 µM; in assay [10], 3.33 µM. Also, the TGI in assay [1] is 11 µM; in [2], 3.18 µM; in assay [3], 4.39 µM; in assay [4] it was 19.3 µM; in assay [5] it was 4.09 µM; in assay [6] it was 4.16 µM. Also, the TGI in [7] amounted to 7.32 µM; in [8], 30.7 µM; in assay [9], 12.4 µM; in assay [10], 16.1 µM.

For `O=C(/C(=C/c1ccc([N+](=O)[O-])cc1)SCc1ccccc1)c1ccc(Cl)cc1`, the GI50 in [1] was 15.1 µM; in assay [3], 3.21 µM; in [4] it was 3.12 µM; in [5] it was 3.14 µM; in [6] it was 3.96 µM; in assay [7], 3.38 µM. Further, the GI50 in assay [8] was 4.09 µM; in [9], 1.76 µM; in [10], 1.5 µM. The TGI in [1] came out at 32.2 µM; in assay [3], 13.6 µM; in assay [4] it was 11.7 µM; in assay [5], 14.1 µM; in assay [6], 10.5 µM; in assay [7] it was 17.7 µM. For the same compound, the TGI came to 15.3 µM in [8], 6.63 µM in assay [9] and 3.3 µM in assay [10].

Turning to `CCN1C(=O)N(c2ccccc2)C2NC(=S)N(/N=C/C=C/c3ccccc3OC)C21` (configuration not stated), the GI50 in [1] is 0.121 µM; in [2], 0.105 µM; in [3] it was 0.0756 µM; in [4], 0.722 µM; in [5], 0.174 µM; in [6], 0.0409 µM. Further, the GI50 is 0.0782 µM in assay [7], 4.73 µM in assay [8], 0.086 µM in [9] and 0.486 µM in [10]. The TGI in [1] is > 100 µM; in assay [2] it was > 32.7 µM; in assay [3], 0.181 µM; in assay [4], > 100 µM; in assay [5] it was > 61.6 µM; in [6], 0.189 µM. In addition, the TGI in assay [7] is > 72.4 µM; in assay [8], > 100 µM; in [9] it was > 48.5 µM; in assay [10], > 100 µM.

Take `O=C1CCC2(c3ccc(Cl)cc3)Nc3ccncc3N12` (configuration not stated): the TGI in [1], in assay [2], in [3], in assay [4], in assay [5] and in assay [6] was > 10 µM throughout. The TGI in [7], in assay [9] and in assay [10] was > 10 µM throughout.

Consider `O=C(Nc1ccc(Oc2ccc(Nc3nc4ccccc4s3)cc2)cc1)Nc1ccc(Cl)c(C(F)(F)F)c1`, for which the GI50 in [1] was 1.97 µM; in [2] it was 1.31 µM; in [3], 2.21 µM; in assay [4], 1.8 µM; in [5], 1.06 µM; in [6], 1.51 µM. The GI50 was 1.8 µM in [7], 1.57 µM in [8], 1.32 µM in [9] and 1.22 µM in assay [10]. In addition, the TGI is 6.26 µM in assay [1]; 2.61 µM in assay [2]; 5.59 µM in assay [3]; 3.79 µM in assay [4]; 2.77 µM in assay [5]; 3.39 µM in [6]. The TGI in [7] is 4.11 µM; in assay [8] it was 3.2 µM; in assay [9] it was 5.81 µM; in [10], 2.82 µM.

Regarding `COc1cccc(C(=O)NC(c2ccc(C)cc2)c2cc(Cl)c3cccnc3c2O)c1` (configuration not stated), the GI50 was 0.473 µM in assay [1]; 0.495 µM in assay [2]; 0.427 µM in assay [3]; 1.42 µM in assay [4]; 0.552 µM in [5]; 0.291 µM in [6]. In addition, the GI50 was 0.33 µM in assay [7], 0.743 µM in assay [8], 0.538 µM in assay [9] and 0.362 µM in assay [10]. Moreover, the TGI in [1] was found to be 11.2 µM; in [2], 14.4 µM; in assay [3], 2.84 µM; in [4], 15.6 µM; in assay [5], 22.2 µM; in assay [6], 1.65 µM. The TGI in [7] is > 88.6 µM; in assay [8] it was 17.1 µM; in assay [9] it was 5.66 µM; in assay [10] it was 10.8 µM.

As to `Cc1cc(I)cc(CN(CCCN(C)C)C(C)C)c1O`, the GI50 in assay [1] was 18.2 µM; in [2], 12.6 µM; in assay [3], 18.2 µM; in assay [4], 21.6 µM; in assay [5], 31.4 µM; in assay [6], 16 µM. Besides, the GI50 in [7] was 23.1 µM; in assay [8], 16.5 µM; in [9], 15.9 µM; in assay [10], 14.5 µM. Moreover, the TGI in [1] is 39.6 µM; in [2] it was 25.1 µM; in assay [3], 36 µM; in assay [4] it was 40.8 µM; in [5], > 100 µM; in assay [6], 31.4 µM. Besides, the TGI in assay [7] came out at 61.6 µM; in [8], 34.3 µM; in assay [9], 35.8 µM; in assay [10], 32.6 µM.

In the case of `Nc1cc(NN=C(c2ccc(O)cc2)c2ccc(O)cc2)c([N+](=O)[O-])cc1[N+](=O)[O-]`, the GI50 in assay [1] is 2.29 µM; in assay [2], 2 µM; in assay [3], 3.04 µM; in assay [4], 2.45 µM; in assay [5], 2.31 µM; in assay [6], 2.46 µM. Moreover, the GI50 in assay [7] is 3.49 µM; in assay [8], 1.6 µM; in assay [9], 2.03 µM; in assay [10], 1.81 µM. The TGI was 5.69 µM in assay [1]; 4.23 µM in [2]; 14 µM in assay [3]; 5.96 µM in assay [4]; 6.07 µM in assay [5]; 6.51 µM in assay [6]. In addition, the TGI was 11.6 µM in assay [7], 3.56 µM in assay [8], 7.48 µM in [9] and 4.87 µM in [10].
